Source: patent publication US9056105B2, “Method for treatment of bone diseases and fractures” (INDIANA UNIVERSITY RESEARCH AND TECHNOLOGY CORPORATION, priority 2008, dated 2015)

Tests used:
[1] = test system: ATF4, ATF3, CHOP, Runx2, Osterix, Rank 1, Osteocalcin mRNA; test: mRNA expression levels by real-time PCR in MC3T3 cells; assay type: cell-based, mouse
Experimental: Responses to Administration of Thapsigargin—Upregulation of transcription factors linked to bone formation as well as PERK: The effects of 10 nM thapsigargin on mRNA expression levels of ISR-linked genes (ATF4, ATF3, and CHOP) as well as genes involved in bone remodeling (Runx2, Osterix, and Rank 1), were examined (FIG. 7). […] Out of 4 transcription factors (ATF4, ATF3, Runx2, and Osterix), the level of ATF4 mRNA was elevated 2-4 fold throughout the treatments. […] The mRNA level of type 1 collagen was elevated 5 h and 10 h for T1h (1 h exposure at 10 nM).
(§1) Responses to Administration of Salubrinal—In vitro responses to salubrinal: In order to evaluate the effects of salubrinal, MC3T3 E1 osteoblast-like cells and MLO-A5 osteocyte cells (Barragan-Adjemian, C., et al., “Mechanism by which MLO-A5 late osteoblasts/early osteocytes mineralize in culture: similarities with mineralization of lamellar bone,” Calcif. Tissue Int. 79:340-353 (2006)) were incubated with salubrinal at 100 nM-50 μM for 1-24 h. The mRNA levels of the selected genes, TF4, ATF3, Osteocalcin (OCN), and CHOP, were determined by real-time PCR. […] In MC3T3 cells, for instance, the Osteocalcin mRNA level, which is regulated by ATF4 and Runx2 (Xiao et al. 2005), was elevated 11.8±0.2 fold at 10 μM salubrinal in 24 h.

MLO-A5 osteocyte cells = test: mRNA levels by real-time PCR in MLO-A5 osteocyte cells; assay type: cell-based; conditions: 100 nM-50 μM, 1-24 h
Experimental: as §1

femora of C57BL/6 mice = test: Intramedullary injection into mouse femur, BMD and BMC; assay type: in vivo
Experimental: Responses to Administration of Salubrinal—In Vivo Responses to salubrinal: In order to evaluate the effects of salubrinal in vivo, salubrinal was injected into an intramedullary cavity of the left femora of C57BL/6 mice and alterations in bone mineral density (BMD) and bone mineral content (BMC) were determined. There were 9 salubrinal treated mice as well as 9 placebo mice (injection of PBS). All mice received 4 injections of either salubrinal or PBS in the left femur, while the right femur was used as contralateral control. In four consecutive injections with a 0.5-inch #26-gauge needle and a Hamilton micro-syringe, the laterial side was used on the 1st and 3rd injections and the medial side on the 2nd and 4th injections. An injection volume was 20 μl for salubrinal or PBS, and the salubrinal concentration was 50 μM. […] At the time of harvest (2 wks after the 1st injection), an increase in body weight in Salubrinal group (0.80±0.13 g) was higher than that in Placebo group (0.28±0.15 g; p<0.05). Harvested bone samples were analyzed with PIXImus (version 1.4, GE Medical System Lunar) for determination of BMD and BMC.

mouse tibia = test: Mouse tibia bone formation, ankle loading plus local salubrinal; assay type: in vivo; conditions: 0.025 mg/kg (100 μM) salubrinal plus ankle loading, 5 days
Experimental: Mouse tibia-bone formation: Twenty C57/BL/6 Female Mice (˜8 weeks, body weight˜18 g) were employed to examine the combined effects of ankle loading and local administration of salubrinal to the tibia (Zhang P, et al., Salubrinal stimulates anabolic responses in mouse femora, 55th Ann Meeting ORS (2009)). Local administration was targeted into a bone marrow cavity from the proximal tibia. A total volume of 20 μl PBS was injected to the left hindlimb with or without 0.025 mg/kg (100 μM) salubrinal (Calbiochem) using a micro-syringe with a 0.5-inch #26-gauge needle (Worsham D N, et al., In vivo gene transfer into adult stem cells in unconditioned mice by in situ delivery of a lentiviral vector, Mol. Ther. 14:514-24 (2006); Zhu Y, et al., eIF-2α protects brainstem motoneurons in a murine model of sleep apnea, J. Neurosci. 28:2168-78 (2008)). In examination of the combined effects of mechanical loading and salubrinal administration, ankle loading was given for 5 consecutive days after administration of salubrinal on each day. The mouse was placed in an anesthetic induction chamber to cause sedation and then mask-anesthetized using 1.5% isoflurane. With a custom-made piezoelectric mechanical loader, loads were applied to the left ankle for 5 min/day in the lateral-medial direction. The loading frequency was 5 Hz, and the peak-to-peak force was 0.5 N (FIG. 15). […]

rat tibia = test: Rat tibia healing of surgical wounds, micro CT; assay type: in vivo; conditions: for reduction in wound size vs control: medial cortex
Excerpt: Rat tibia—healing of surgical wounds. Twenty female SD rats (˜8 weeks, body weight˜180 g) received a surgical hole with ˜2.0 mm in diameter in the left and right tibiae (Zhang P., et al., Knee loading accelerates bone healing in mice, J. Bone Miner. Res. 22:1979-1987 (2007)). The hole was located on the medial surface ˜15 mm distant apart from the proximal end of the tibia (Chiba S., et al., Molecular analysis of defect healing in rat diaphyseal bone, J. Vet. Med. Sci. 63:603-606 (2001)). During the first 5 days, 100 μl of salubrinal solution at dosage of 0.025 mg/kg was injected into the left limb and a PBS solution (vehicle control) in the right limb (Wang J W, et al., Locally applied simvastatin promotes fracture healing in ovariectomized rat, Osteoporosis Int. 18:1641-1650 (2007)). Injection was subcutaneous targeted to the wound site. Rats were sacrificed on days 10 or 20 after surgery, and the axial and transverse length of the holes as well as cortical thickness (1.5 mm proximal and distal to the center of the hole) were determined with micro CT imaging (μCT-20, Scanco Medical AG) (FIG. 16).

rat femur = test: Rat femur healing of surgical wounds, micro CT; assay type: in vivo; conditions: for increase in cortical thickness vs control: anterior hole; for reduction in wound size vs control: anterior holes; for increase in cortical thickness: posterior hole
Experimental: Rat femur—healing of surgical wounds. A surgical hole with ˜2.0 mm in diameter was generated in the left and right femurs of twenty female SD rats (˜8 weeks, body weight ˜180 g). The holes were drilled through the femur from the anterior surface to the opposite cortex (posterior surface) in the middle of the femur. During the first 5 days, 100 μl of salubrinal solution at dosage of 0.025 mg/kg was injected subcutaneously to the left limb and a PBS solution (vehicle control) in the right limb. The injection site was closed to the anterior surgical hole. Rats were sacrificed on days 10 or 20 after surgery, and the axial and transverse hole sizes as well as cortical thickness (1.5 mm proximal and distal to the center of the hole) were determined with micro CT. […] Regarding the anterior holes, the size of the wounds 10 days after surgery was smaller in the salubrinal treated group by 10.8% (1.905±0.018 mm in control and 1.700±0.021 mm in salubrinal; p<0.001). The size in 20 day samples was further decreased by 18.0% (1.812±0.017 mm in control and 1.486±0.026 mm in salubrinal; p<0.001). […] Note that the reduction in the wound size on day 20 was more significant than those on day 10 in both the anterior and posterior holes (both p<0.001) (FIG. 20B).

rat brain = conditions: intra-cerebroventricular or intra-peritoneal administration; cited from earlier work
brainstem motoneurons = conditions: hypoxia and reoxygenation events; cited from earlier work
rat β-cells = conditions: 5-75 μM, dosage dependent; cited from earlier work
[2] = test system: eIF2α-p and ATF4 proteins; test: Western blot of eIF2α-p and ATF4 proteins in MC3T3 E1 osteoblast-like cells; assay type: cell-based, mouse
Experimental: (§2) At higher doses of 10 and 100 nM, the levels of eIF2α-p and ATF4 proteins were elevated (FIG. 5A). Thapsigarin is known to induce apoptosis when administered above a threshold concentration.
MS3T3 osteoblast-like cells were used to evaluate the level of eIF2α-p (phosphorylated form of eukaryotic initiation factor 2—subunit α) in response to salubrinal.

[3] = test system: CHOP, pro-caspase 3, cleaved caspase 3; test: Protein levels of CHOP, pro-caspase 3 and cleaved caspase 3 (induction of apoptosis); assay type: cell-based, mouse; conditions: 10 nM
Experimental: as §2

MC3T3 cells [4] = assay type: cell-based, mouse
[5] = test system: PERK, PKR, p-38 MAPK, ERK1/2; test: Phosphorylation of eIF2α kinases and MAP kinases; assay type: cell-based, mouse; conditions: 10 nM, 1 h exposure
Experimental: In response to T1h (1 h exposure at 10 nM), the level of phosphorylation of two eIF2α kinases (PERK and PKR), and two MAP kinases (p-38 MAPK and ERK1/2) was examined (FIG. 8).

MC3T3 cells [6] = test: Microarray analysis (GSEA, IPA) of thapsigargin-induced mild ER stress; assay type: cell-based, mouse; conditions: 1 h exposure at 10 nM
Experimental: Responses to Administration of Thapsigargin—Linkage to hypoxia through microarray analysis: In response to thapsigargin-induced mild ER stress (1 h exposure at 10 nM), microarray experiments were conducted. First, Gene Set Enrichment Analysis (GSEA; Broad Institute) was used to identify a group of genes that shared common biological functions (Hamamura, K., et al., “Microarray analysis of thapsigargin-induced stress to the endoplasmic reticulum of mouse osteoblasts,” J. Bone Miner. Metab. 26:231-240 (2008)). For each group of gene sets, GSEA calculates an enrichment score and evaluates statistical significance in the enrichment score. […] The highest normalized enrichment score was given to the gene set, HYPOXIA_UP. All genes present in the array were reordered based on a ranked list-metric value (a mean expression ratio between the thapsigargin-treated and untreated samples), and the best enrichment score of “−0.66” was assigned. Note that if the expression ratio is random among the genes in HYPOXIA_UP, the expected enrichment score is ±0.23. The enrichment score, ranked […] and P (enrichment score) supported the conclusions drawn from the software program output. […]

[7] = 10 days after surgery, 0.025 mg/kg

## O=C(/C=C/c1ccccc1)NC(NC(=S)Nc1cccc2cccnc12)C(Cl)(Cl)Cl (stereo not drawn) [salubrinal]
[1]; MC3T3 cells, 100 nM-50 μM, 1-24 h
  mRNA levels of ATF4, ATF3, Osteocalcin and CHOP: upregulated
MLO-A5 osteocyte cells
  mRNA levels of ATF4, ATF3, Osteocalcin and CHOP: did not show any significant alterations
Femora of C57BL/6 mice; 20 μl 50 μM injection, 4 injections, mean±s.e.m.
  BMD of injected femur: 0.0456±0.0011 g/cm^2
Femora of C57BL/6 mice; p=0.02
  BMD compared to contralateral control: increased
Femora of C57BL/6 mice; p=0.09
  BMC compared to contralateral control: showed a trend to elevate
Mouse tibia
  tibia BMC: 0.0154 ± 0.0004 g
  tibia BMD: 0.0443±0.0011 g/cm^2
Rat tibia; day 10
  increase in cortical thickness vs control: 11.6%
Rat tibia; day 20
  increase in cortical thickness vs control: 20.3%
Rat tibia; [7]
  reduction in wound size vs control: 12.3%
Rat tibia; 20 days
  reduction in wound size vs control: 19.1%
Rat femur; day 10
  increase in cortical thickness vs control: 11.0%
Rat femur; day 20
  increase in cortical thickness vs control: 25.7%
Rat femur; [7]
  reduction in wound size vs control: 10.8%
Rat femur; 20 days
  reduction in wound size vs control: 18.0%
Rat femur; postoperative 10 days
  increase in cortical thickness: 13.8%
Rat femur; postoperative 20 days
  increase in cortical thickness: 21.3%
Rat brain
  excitotoxic neuronal death in vivo: decreased excitotoxic neuronal death
Brainstem motoneurons
  motoneuronal injury: suppressed motoneuronal injury
Rat β-cells
  apoptosis: induced apoptosis

## C/C=C(/C)C(=O)O[C@H]1C(C)=C2[C@H]([C@@H]1OC(=O)CCCCCCC)[C@@](C)(OC(C)=O)C[C@H](OC(=O)CCC)[C@@]1(O)[C@H]2OC(=O)[C@@]1(C)O [thapsigargin]
[2]; 10 and 100 nM
  levels of eIF2α-p and ATF4 proteins: elevated
[2]; dosages below 0.1 nM
  eIF2α-p and ATF4 protein expression: no detectable upregulation
[3]
  level of active (cleaved) caspase 3: increased after 24 h
[3]; higher for 5, 10 and 24 h
  level of CHOP protein: started to increase after 3 h
MC3T3 cells [4]; 10 nM, 1 h incubation
  numbers of live and dead cells: does not alter
MC3T3 cells [4]; 1 h exposure at 10 nM
  cell number or mortality vs control cells: no significant difference
[1]; 10 nM
  increase in Runx2 mRNA: started at 3 h and peaked at 5 h
  mRNA level of CHOP: 10-35 fold
[1]; 10 nM, 1 h exposure, 5 h and 10 h
  mRNA level of type 1 collagen: elevated
[1]; 10 nM, 3 h for T2h and 10 h for T3h
  Rank 1 mRNA: significantly up
[1]; 1-100 nM for 1-24 h
  level of Osteocalcin mRNA: did not increase
[5]
  level of p-ERK1/2: not altered
  level of p-PERK: elevated
  level of p-PKR: not altered
  level of p-p38 MAPK: elevated
MC3T3 cells [6]
  core enrichment genes in HYPOXIA_UP vs control: significantly upregulated
